From US20230323292A1, “METHODS FOR PRODUCING A (THREE DIMENSIONAL) NEURAL TISSUE” (TECHNISCHE UNIVERSITEIT EINDHOVEN, priority 2020, published 2023) come the findings set out here.

Counter-ions that a name gives are not always drawn.

For this test, the system named is MARC-produced cerebral tissues. Description: Live calcium imaging of interconnected MARC-produced cerebral tissues in the iS3CC chip after Penicillin G treatment of one chamber. The test is classed as cell-based, human. On the procedure:
The transparent PDMS devices were repeatedly washed using 70% ethanol followed by sterilization using UV light in the safety cabinets (3×5 min). After neuronal induction phase, the cells were disassociated using Accutase and resuspended in 35 μl of a mixture of cold GFR-Matrigel and differentiation medium with a 70:30 v/v ratio at a final concentration of 50,000 cells per chamber. The chips containing cells and Matrigel-medium mixture were placed in a Petri dish to prevent contamination, since the chips have an open top, and kept in an incubator at 37° C. and 5% CO2 for 5 min to polymerize the Matrigel mixture. After that, an additional 200 μl of differentiation medium was added to each chamber and the chips were placed back into the incubator. The medium was refreshed and the culture was continued as described above, with gentler handing to prevent damage to the gel and cells.
Live calcium imaging was performed with the same widefield epifluorescence microscope, equipped with temperature, CO2, and humidity control. The tissues were incubated in the recommended concentrations of Fluo-4 direct according to the manufacturer (Molecular Probes, F10471) for 50 min in the incubator at 37° C. and 10 min at room temperature. After that, the tissues were washed five times with the neural maintenance medium. The calcium surges were recorded using an excitation of 488 nm and an emission of 530 nm every 10 seconds. Fluorescence images were obtained using a widefield epifluorescence microscope (Leica DMi8) equipped with either a 5×/0.15 HC PL Fluotar or a 10×/0.32 HC PL Fluotar objective lens. […]
Neuronal activity was analyzed from the time-lapse images. To account for possible drifts or deformations of the tissues, the location of the cells was detected in each frame and linked across the frames using the Mosaic particle tracker plugin in ImageJ. The fluorescence intensity of each detected cell was calculated from the image intensity data using MATLAB. Occasional gaps in the time traces, due to the cells not being detected in certain frames, were filled using spline interpolation of the intensity values. The background fluorescence in each chamber was calculated in the same way using 10 arbitrarily selected cell-sized ROIs in the cell-free regions of each chamber, averaged, and subtracted from the real (cell) data. Further, the intensity values were corrected for imaging artifacts due to out-of-focus fluorescence by subtracting the mean intensity of an annular mask with an outer radius of 18 pixels and an inner radius of 9 pixels (i.e., size of the ROI) for each ROI. […]

For `CC1(C)S[C@@H]2[C@H](NC(=O)Cc3ccccc3)C(=O)N2[C@H]1C(=O)O` [Penicillin G, Penicillin G sodium salt], the “propagation of synchronized transient peaks from treated tissue to cells in the untreated tissue (share of the time)” value (4 cells per tissue, post-treatment with Penicillin G (FIG. 4e,f)) is about 45%. In addition, the “fluorescence in the treated tissue compared to the baseline” value (treated chamber, immediately following treatment, Penicillin G sodium salt 100 mg/ml bath application, Fluo-4 calcium imaging) is “increased amount of fluorescence”. Moreover, for the setting “treated chamber, post-treatment, Penicillin G 100 mg/ml, indicative for abnormal excessive discharges”, the “neuronal activity and synchrony of transient spikes in the treated tissue” value was “increased magnitude and frequency of neuronal activity, as well as synchrony of transient spikes”. Further, for the setting “untreated chamber connected across 8 μm porous membrane, post-treatment of the other chamber”, the “intensity and neuronal activity of neurons in the untreated chamber” value was “increased intensity and neuronal activity”.
